pIC50: −log10 of the molar value. Like-named read-outs stand apart in the source and are kept apart here.
Key:
[1] = tested on: chicken erythrocyte membranes; assay: Single-molecule force spectroscopy (AFM); type: binding; details: for Unbinding force Chicken erythrocyte: RMS ± SD, N-terminal Cys peptide on AFM tip via PEG linker
Excerpt: (§1) Based on the above results, five selected peptides of V13L, A12L/A20L, V13K, V13E, and L6A/L17A, with different hydrophobicity and charges were used to examine the interaction probabilities and forces between peptides and membranes, both on the lipid model membranes and on the biological membranes by SMFS based on AFM, respectively. A cysteine residue was covalently introduced to the N-terminus of peptides and provided a free sulfhydryl group to modify the tips of the AFM. A PEG linker was used since each heterobifunctional PEG–NHS linker (approximately 20 nm) can only covalently connect with a single peptide molecule, which guarantees a single-molecule interaction between MAPs and biological membranes in real time[19]. If an AFM tip was functionalized with two or more peptides, where several peaks were recorded. In the reports, data with two peaks were not collected and calculated. For one force–distance cycle, one peptide-functionalized AFM tip approached the model and biological membranes right on the top, and the subsequent tip was withdrawn from the cell membranes to retrace the process. […] In addition, blocking experiment was used to test the specificity of these force events. As the electrostatic attraction is one important reason for peptides approaching model membranes and biological membranes, the Tris-HCl buffer including plenty amino groups[20] was injected into the working chamber and inhibits the interactions between MAPs and model membranes/biological membranes. […] The unbinding forces of V13L against different model membranes and biological membranes with the loading rate of 1 × 10^5 pN s^−1 are shown in Fig. 3c,f–h,j–l.
(§2) The AFM tip was first washed with concentrated sulfuric acid and hydrogen peroxide (3:1, v:v). The tip was dried using ozone (O3) for 15 min and dried overnight in a dryer. The tip was then modified with APTES under an argon atmosphere and the peptide connected with a PEG–NHS linker. Finally, the AFM tip linked with the peptide was washed three times in PBS and kept at 4 °C. A 500-μL LUV suspension was deposited on Lys coated glass and the LUVs were absorbed on the surface for 1 h at 65 °C [9][29]. A. laidlawii was deposited on poly-L-lysine coated glass and absorbed for 1 h at 37 °C [30]. The 3T3-L1 and HeLa cells were cultured on glass slides in Dulbecco’s modified Eagle’s medium (DMEM). Before performing force spectroscopy experiments, the cells were washed with fresh DMEM three times to remove the cell metabolites. Isolation of chicken erythrocytes was carried out at room temperature. Then the erythrocytes were washed three times in 2 mL PBS buffer by centrifuge (1,000 rpm) and resuspended in PBS buffer. 200 μL erythrocyte suspension were deposited onto poly-L-lysine coated glass for 20 min[10]. The force measurements of MAPs with LUVs mimicking membranes and living cells were performed using the AFM5500 (Agilent Technologies, Chandler, AZ, USA)[19].

[2] = tested on: HeLa cells; assay: Single-molecule force spectroscopy (AFM); type: binding, human; details: RMS ± SD; N-terminal Cys peptide on AFM tip via PEG linker
Excerpt: as §1
as §2, with “The force measurements of MAPs with LUVs mimicking membranes and living cells were performed using the AFM5500 (Agilent Technologies, Chandler, AZ, USA)[19].” left out

[3] = RP-HPLC retention time (peptide hydrophobicity); type: physicochemical; details: used as measure of peptide hydrophobicity
Description: All peptides were synthesized by solid-phase peptide synthesis using Fmoc (9-fluorenyl-methoxycar-bonyl) chemistry and rink amide 4-methylbenzhydrylamine resin (MBHA resin; 0.8 mmol/g), as described previously. The crude peptides were purified on a LC-6A preparative reversed-phase high performance liquid chromatography (RP-HPLC, Shimadzu, Kyoto, Japan) using a Zorbax 300 SB-C8 column (250 × 9.4 mm inner diameter, […] particle size, 300 Å pore size), as described previously. The purity of the peptides was characterized by analytical RP-HPLC, mass spectrometry, and amino acid analysis.

[4] = tested on: A549 cells; type: cell-based, human; details: 24 h
Description: (§3) The MTT cell proliferation assay was used to investigate the anticancer activity and cytotoxicity of MAPs against cancer cell lines (HeLa, A549, SGC-7901, and B16) and normal cells (3T3-L1), respectively. Cells (5 × 10^3) were seeded in 96-well plates and incubated overnight. The peptide samples were then added to cells with final concentrations ranging from 1 μM to 125 μM. After 24 h, 20 μL of 5 mg/mL MTT solution in PBS was added to the cells and treated for 4 h at 37 °C. The formazan crystals were dissolved by 150 μL of dimethyl sulfoxide (DMSO). Finally, the absorbance was determined at 492 nm. The results were expressed as IC50, representing the concentration at which cell viability was reduced by 50%. All assays were repeated in triplicate.

[5] = tested on: SGC7901 cells; type: cell-based, human; details: 24 h
Description: as §3

[6] = tested on: HeLa cells; type: cell-based, human; details: 24 h
Description: as §3

[7] = tested on: gram-negative bacteria (P. aeruginosa and E. coli); type: cell-based
Description: (§4) Then, 10 μL of peptides was added. […] All assays were repeated in triplicate.

[8] = tested on: S. aureus ATCC25923; type: cell-based
Description: as §4

[9] = tested on: gram-positive bacteria (S. aureus and S. epidermidis); type: cell-based
Description: as §4

[10] = tested on: P. aeruginosa ATCC27853; type: cell-based
Description: as §4

[11] = tested on: S. epidermidis ATCC12228; type: cell-based
Description: as §4

[12] = tested on: E. coli ATCC25922; type: cell-based
Description: as §4

[13] = MTT, 1-125 μM, triplicate, read-out: IC50 A549
[14] = MTT, 1-125 μM, triplicate, read-out: IC50 SGC7901
[15] = MTT, 1-125 μM, triplicate, read-out: IC50 HeLa
[16] = geometric mean of MIC values from two gram-negative strains
[17] = MH medium, 5 × 10^5 CFU/mL, 24 h, 37 °C, triplicate
[18] = geometric mean of MIC values from two gram-positive strains

Molecule | Unbinding force Chicken erythrocyte [1] | Unbinding force HeLa [2] | tR (RP-HPLC retention time) [3] | pIC50 [4, 13] | pIC50 [5, 14] | pIC50 [6, 15] | G− MIC GM [7, 16] | G+ MIC S. aureus ATCC25923 [8, 17] | G+ MIC GM [9, 18] | G− MIC P. aeruginosa ATCC27853 [10, 17] | G+ MIC S. epidermidis ATCC12228 [11, 17] | G− MIC E. coli ATCC25922 [12, 17] | pIC50 [4] | pIC50 [5] | pIC50 [6] | G− MIC GM [7] | G+ MIC S. aureus ATCC25923 ([8]; ATCC25923, 24 h) | G+ MIC GM [9] | G− MIC P. aeruginosa ATCC27853 ([10]; ATCC27853, 24 h) | G+ MIC S. epidermidis ATCC12228 ([11]; ATCC12228, 24 h) | further results
Ac-KWKSFAKTFKSAKKTVAHTALKAISS-NH2 [L6A/L17A] | 78 ± 39 pN | 39 ± 11 pN | 32.210 min | < 3.90 | < 3.90 | < 3.90 | 125 µM | 125 µM | 125 µM | 125 µM | 125 µM | 125 µM |  |  |  |  |  |  |  |  | 
Ac-KWKSFLKTFKSALKTVLHTALKAISS-NH2 [Peptide V13L] | 76 ± 34 pN | 31 ± 10 pN | 53.177 min |  |  |  |  |  |  |  |  |  | 5.55 | 5.70 | 5.31 | 5.66 µM | 8 µM | 4 µM | 8 µM | 2 µM | Interaction probability of the force signal ([1]; chicken erythrocyte membranes, out of about 1000 force cycles): about 18%; G− MIC E. coli ATCC25922 ([12]; ATCC25922, 24 h): 4 µM
Ac-KWKSFLKTFKSAEKTVLHTALKAISS-NH2 [Peptide V13E] | 59 ± 35 pN | 36 ± 14 pN | 44.290 min |  |  |  |  |  |  |  |  |  | 3.96 | 4.04 | 4.13 | 89.44 µM | 125 µM | 125 µM | 125 µM | 125 µM | G− MIC E. coli ATCC25922 ([12]; ATCC25922, 24 h): 64 µM
CC[C@H](C)[C@H](NC(=O)[C@H](C)NC(=O)[C@H](CCCCN)NC(=O)[C@H](CC(C)C)NC(=O)[C@H](C)NC(=O)[C@@H](NC(=O)[C@H](Cc1cnc[nH]1)NC(=O)[C@H](CC(C)C)NC(=O)[C@@H](NC(=O)[C@@H](NC(=O)[C@H](CCCCN)NC(=O)[C@H](CCCCN)NC(=O)[C@H](C)NC(=O)[C@H](CO)NC(=O)[C@H](CCCCN)NC(=O)[C@H](Cc1ccccc1)NC(=O)[C@@H](NC(=O)[C@H](CCCCN)NC(=O)[C@H](CC(C)C)NC(=O)[C@H](Cc1ccccc1)NC(=O)[C@H](CO)NC(=O)[C@H](CCCCN)NC(=O)[C@H](Cc1c[nH]c2ccccc12)NC(=O)[C@H](CCCCN)NC(C)=O)[C@@H](C)O)[C@@H](C)O)C(C)C)[C@@H](C)O)C(=O)N[C@@H](CO)C(=O)N[C@@H](CO)C(N)=O [Peptide V13K] | 87 ± 39 pN | 52 ± 20 pN | 38.790 min | 4.61 | 4.72 | 4.88 | 8 µM | 32 µM | 11.31 µM | 8 µM | 4 µM | 8 µM |  |  |  |  |  |  |  |  | 

Source: publication PMC4929710, “Specificity and mechanism of action of alpha-helical membrane-active peptides interacting with model and biological membranes by single-molecule force spectroscopy” (Scientific Reports, 2016)
